Assay [1] deals with T1, human mitochondrial ADP/ATP carrier isoform 1 (hAAC1) (Homo sapiens, UniProt P12235).
T1 sequence (P12235 11-298): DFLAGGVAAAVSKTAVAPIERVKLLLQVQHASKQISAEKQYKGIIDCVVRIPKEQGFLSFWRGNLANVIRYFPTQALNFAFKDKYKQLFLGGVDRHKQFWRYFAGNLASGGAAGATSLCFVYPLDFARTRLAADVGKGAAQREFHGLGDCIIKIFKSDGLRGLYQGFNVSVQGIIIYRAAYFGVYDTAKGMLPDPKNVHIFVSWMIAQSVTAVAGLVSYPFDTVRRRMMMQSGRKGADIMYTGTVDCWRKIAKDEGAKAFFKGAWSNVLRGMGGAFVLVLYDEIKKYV
Set-up: gene SLC25A4.

Assay [2] concerns the target T1, human mitochondrial ADP/ATP carrier isoform 1 (hAAC1). Kind of assay: […]-ATP uptake in proteoliposomes, dose-response. It counts as biochemical. On the set-up: gene SLC25A4; hAAC1Δ1-10, residues 11-298.
The target is the same in assay [3]. Kind of assay: […]-ATP uptake in proteoliposomes, inhibition at […]. Set-up: gene SLC25A4; hAAC1Δ1-10, residues 11-298. In kind it is biochemical. To be noted: read-out: % inhibition at 100 μM.
The target is the same in assay [4]. Kind of assay: […]-ATP uptake in proteoliposomes, dose-response; CPM thermal shift (+[…] °C at […]). It counts as biochemical. Set-up: gene SLC25A4; hAAC1Δ1-10, residues 11-298.

pIC50: −log10 of the molar value.

Broadly, the Km is the substrate concentration at which the rate is half of its maximum. As a reminder, the pIC50 is the negative decadic logarithm of the IC50, by convention in mol/L. As a reminder, the inhibition is the change of the read-out against control, counted positive when it falls.

Take `Nc1ncnc2c1ncn2[C@@H]1O[C@H](COP(=O)(O)OP(=O)(O)OP(=O)(O)O)[C@@H](O)[C@H]1O` [ATP]: the Km in assay [1] is 3.2 µM. As to `O=C(O)c1ccc2cc(-c3ccc(O)c(C45CC6CC(CC(C6)C4)C5)c3)ccc2c1` [CD-437], the pIC50 in assay [2] (read-out: IC50) was 4.70. On to `O=C1c2c(O)cccc2Cc2cccc(O)c21` [anthralin], for which the inhibition at 100 µM in assay [3] was 77%. In assay [2], `O=C(O)C[C@@H]1C(=O)O[C@H]2[C@H](OC(=O)c3cc(O)c(O)c(O)c3)[C@@H](OC(=O)c3cc(O)c(O)c4c3[C@H]1[C@H](O)C(=O)O4)[C@H](OC(=O)c1cc(O)c(O)c(O)c1)O[C@@H]2COC(=O)c1cc(O)c(O)c(O)c1` [chebulinic acid] had a pIC50 of 5.19. For `Cc1ccc(C(=O)Nc2ccc(S(=O)(=O)O)c3cc(S(=O)(=O)O)cc(S(=O)(=O)O)c23)cc1NC(=O)c1cccc(NC(=O)Nc2cccc(C(=O)Nc3cc(C(=O)Nc4ccc(S(=O)(=O)O)c5cc(S(=O)(=O)O)cc(S(=O)(=O)O)c45)ccc3C)c2)c1` [suramin], in assay [4], the pIC50 was 5.62.

Consider `CC1=C(/C=C/C(C)=C/C=C/C(C)=C/C(=O)O)C(C)(C)CCC1` [tretinoin], for which the inhibition at 100 µM in assay [3] stood at 59%.

The values above are taken from publication PMC8039944, “Characterization of drug-induced human mitochondrial ADP/ATP carrier inhibition” (Theranostics, 2021).
